From the supplement of paper PMC10307832 come the findings set out here.

What all share (assay): relative viability (nuclei count vs DMSO), 5 days (fraction); higher = more cells survive
Compound in test [1]: CC1CC(=O)N(C2=CN=C(N=C2N1C3CCCC3)NC4=C(C=C(C=C4)C(=O)NC5CCN(CC5)C)OC)C [NPK76-II-72-1] + CC(=O)Nc1cccc(-n2c(=O)n(C3CC3)c(=O)c3c(Nc4ccc(I)cc4F)n(C)c(=O)c(C)c32)c1 [Trametinib] (partner 0.02 µM)
In a few lines: (§1)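 For relative viability, nuclei counts in treated wells were divided by those in vehicle wells. Lung cancer cell lines had been pin-tool dosed in 1536-well plates the day after seeding and cultured for 5 days, then fixed and stained in one step (final 0.05% Triton X-100, 1% formaldehyde, 1 ug/ml Hoechst) and imaged at 4×. Doses were one drug alone or a fixed anchor-drug dose plus five library-drug doses (not always all listed) in √10 steps, and values are duplicate-plate medians.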

Compound in the test “BI-2536 + Bortezomib”: CC[C@@H]1C(=O)N(C)c2cnc(Nc3ccc(C(=O)NC4CCN(C)CC4)cc3OC)nc2N1C1CCCC1 [BI-2536] + CC(C)C[C@H](NC(=O)[C@H](Cc1ccccc1)NC(=O)c1cnccn1)B(O)O [Bortezomib] (partner 0.002 µM)
The procedure, abridged: as §1

Compound in the test “BI-2536 + Luminespib”: CC[C@@H]1C(=O)N(C)c2cnc(Nc3ccc(C(=O)NC4CCN(C)CC4)cc3OC)nc2N1C1CCCC1 [BI-2536] + CCNC(=O)c1noc(-c2cc(C(C)C)c(O)cc2O)c1-c1ccc(CN2CCOCC2)cc1 [Luminespib] (partner 0.01 µM)
The procedure, abridged:
as §1

Compound in the test “BI-2536 + Pemetrexed”: CC[C@@H]1C(=O)N(C)c2cnc(Nc3ccc(C(=O)NC4CCN(C)CC4)cc3OC)nc2N1C1CCCC1 [BI-2536] + Nc1nc2[nH]cc(CCc3ccc(C(=O)N[C@@H](CCC(=O)O)C(=O)O)cc3)c2c(=O)[nH]1 [Pemetrexed] (partner 0.2 µM)
In a few lines:
as §1

For the cell line UMC-11, the relative viability in test [1] (first compound 0.01 µM) stood at 0.692; in test [1] (first compound 0.03162 µM) it was 0.629; in test [1] (first compound 0.1 µM), 0.75; in test [1] (first compound 0.3162 µM), 0.484; in test [1] (first compound 1 µM), 0.812; in the test with BI-2536 + Bortezomib (first compound 0.01 µM), 0.601. Moreover, the relative viability with BI-2536 + Bortezomib (first compound 0.03162 µM) amounted to 0.414; with BI-2536 + Bortezomib (first compound 0.1 µM), 0.175; in the test with BI-2536 + Bortezomib (first compound 0.3162 µM), 0.134; with BI-2536 + Bortezomib (first compound 1 µM) it was 0.104; in the test with BI-2536 + Luminespib (first compound 0.01 µM) it was 0.925; in the test with BI-2536 + Luminespib (first compound 0.03162 µM) it was 0.725. Further, the relative viability with BI-2536 + Luminespib (first compound 0.1 µM) came out at 0.232; in the test with BI-2536 + Luminespib (first compound 0.3162 µM), 0.188; with BI-2536 + Luminespib (first compound 1 µM), 0.168; in the test with BI-2536 + Pemetrexed (first compound 0.01 µM), 0.8; with BI-2536 + Pemetrexed (first compound 0.03162 µM), 0.57; in the test with BI-2536 + Pemetrexed (first compound 0.1 µM), 0.242. The values for the relative viability with BI-2536 + Pemetrexed (first compound 0.3162 µM) and with BI-2536 + Pemetrexed (first compound 1 µM) were 0.194 and 0.184, respectively.
